Active and inactive are the calls of the source. The calls are words filed in the database; no cut-off is given here.
Key:
[1] = target: T1, Protein cereblon/Histone acetyltransferase p300 (Homo sapiens, UniProt Q09472+Q96SW2); assay: PROTAC activity at p300/CRBN in human VCaP cells assessed as maximal protein degradation at 1 uM incubated for 4 hrs by Western blot analysis relative to control; format: cell-based
[2] = target: T2, Protein cereblon/CREB-binding protein (Homo sapiens, UniProt Q92793+Q96SW2); assay: PROTAC activity at CBP/CRBN in human VCaP cells assessed as maximal protein degradation at 1 uM incubated for 4 hrs by Western blot analysis relative to control; format: cell-based
[3] = target: T1, Protein cereblon/Histone acetyltransferase p300; assay: PROTAC activity at p300/CRBN in human VCaP cells assessed as protein degradation incubated for 4 hrs by Western blot analysis; format: cell-based
[4] = target: T2, Protein cereblon/CREB-binding protein; assay: PROTAC activity at CBP/CRBN in human VCaP cells assessed as protein degradation incubated for 4 hrs by Western blot analysis; format: cell-based
Target sequence in this assay (Q92793 whole entry): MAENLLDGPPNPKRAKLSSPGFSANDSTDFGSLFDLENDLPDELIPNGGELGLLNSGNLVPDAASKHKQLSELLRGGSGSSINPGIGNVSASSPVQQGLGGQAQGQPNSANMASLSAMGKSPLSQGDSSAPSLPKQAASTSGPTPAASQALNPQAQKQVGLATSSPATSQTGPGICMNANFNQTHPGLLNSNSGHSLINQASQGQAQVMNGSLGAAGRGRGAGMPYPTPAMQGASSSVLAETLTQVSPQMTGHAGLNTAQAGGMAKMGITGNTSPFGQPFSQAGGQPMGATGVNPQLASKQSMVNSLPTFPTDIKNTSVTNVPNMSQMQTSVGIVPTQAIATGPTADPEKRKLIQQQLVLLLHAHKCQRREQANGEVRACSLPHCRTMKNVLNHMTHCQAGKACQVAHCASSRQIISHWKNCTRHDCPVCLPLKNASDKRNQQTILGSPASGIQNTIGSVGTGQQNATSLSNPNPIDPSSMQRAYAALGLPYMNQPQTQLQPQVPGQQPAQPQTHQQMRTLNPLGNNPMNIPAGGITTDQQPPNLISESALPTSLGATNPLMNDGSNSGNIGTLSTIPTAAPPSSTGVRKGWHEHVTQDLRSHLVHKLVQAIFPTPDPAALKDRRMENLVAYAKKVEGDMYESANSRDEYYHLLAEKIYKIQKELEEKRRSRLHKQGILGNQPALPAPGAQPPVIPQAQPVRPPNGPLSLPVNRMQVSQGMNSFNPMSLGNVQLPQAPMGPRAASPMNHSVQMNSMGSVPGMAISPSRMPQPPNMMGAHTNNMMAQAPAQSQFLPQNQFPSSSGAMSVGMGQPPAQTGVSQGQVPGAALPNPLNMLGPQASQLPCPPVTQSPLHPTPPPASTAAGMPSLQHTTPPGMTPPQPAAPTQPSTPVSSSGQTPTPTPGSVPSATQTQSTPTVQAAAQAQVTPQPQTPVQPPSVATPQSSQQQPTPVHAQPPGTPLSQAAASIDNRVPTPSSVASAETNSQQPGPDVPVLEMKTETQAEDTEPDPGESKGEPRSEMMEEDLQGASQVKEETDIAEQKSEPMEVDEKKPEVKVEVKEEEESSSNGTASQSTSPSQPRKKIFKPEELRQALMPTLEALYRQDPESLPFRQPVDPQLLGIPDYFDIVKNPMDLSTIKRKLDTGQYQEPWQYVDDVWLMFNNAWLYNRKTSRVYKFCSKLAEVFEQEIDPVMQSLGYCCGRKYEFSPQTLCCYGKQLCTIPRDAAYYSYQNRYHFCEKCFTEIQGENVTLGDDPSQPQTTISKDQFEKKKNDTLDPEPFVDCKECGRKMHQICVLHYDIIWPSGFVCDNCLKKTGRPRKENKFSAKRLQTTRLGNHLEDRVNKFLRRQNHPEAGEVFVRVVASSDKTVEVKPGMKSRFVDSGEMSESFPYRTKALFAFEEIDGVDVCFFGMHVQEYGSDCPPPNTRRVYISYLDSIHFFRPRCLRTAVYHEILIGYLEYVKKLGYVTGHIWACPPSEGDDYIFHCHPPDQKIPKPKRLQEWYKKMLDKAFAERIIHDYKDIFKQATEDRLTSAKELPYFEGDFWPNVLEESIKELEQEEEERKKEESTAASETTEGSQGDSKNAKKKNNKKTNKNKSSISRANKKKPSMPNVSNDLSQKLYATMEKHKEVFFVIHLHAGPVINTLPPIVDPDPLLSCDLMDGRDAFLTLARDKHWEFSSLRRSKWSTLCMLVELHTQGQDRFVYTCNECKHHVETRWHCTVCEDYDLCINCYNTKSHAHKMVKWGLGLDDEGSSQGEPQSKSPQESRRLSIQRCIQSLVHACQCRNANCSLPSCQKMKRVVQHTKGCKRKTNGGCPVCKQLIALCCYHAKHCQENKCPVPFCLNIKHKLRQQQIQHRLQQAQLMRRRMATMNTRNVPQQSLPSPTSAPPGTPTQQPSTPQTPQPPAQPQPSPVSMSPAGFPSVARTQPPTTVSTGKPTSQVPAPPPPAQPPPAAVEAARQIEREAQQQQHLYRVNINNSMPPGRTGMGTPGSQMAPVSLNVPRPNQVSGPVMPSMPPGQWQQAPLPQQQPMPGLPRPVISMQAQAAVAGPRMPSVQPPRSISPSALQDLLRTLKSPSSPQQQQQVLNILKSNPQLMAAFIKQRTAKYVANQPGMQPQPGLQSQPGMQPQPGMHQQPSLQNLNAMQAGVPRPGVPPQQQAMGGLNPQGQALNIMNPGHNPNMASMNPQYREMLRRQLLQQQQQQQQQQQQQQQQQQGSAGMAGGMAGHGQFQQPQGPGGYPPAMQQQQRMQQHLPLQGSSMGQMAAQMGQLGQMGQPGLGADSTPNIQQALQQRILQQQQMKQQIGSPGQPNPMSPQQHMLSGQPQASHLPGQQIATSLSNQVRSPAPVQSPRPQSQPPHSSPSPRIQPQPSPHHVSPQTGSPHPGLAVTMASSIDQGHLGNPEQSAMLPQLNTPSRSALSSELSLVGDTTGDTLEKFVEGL
Target sequence in this assay (Q96SW2 whole entry): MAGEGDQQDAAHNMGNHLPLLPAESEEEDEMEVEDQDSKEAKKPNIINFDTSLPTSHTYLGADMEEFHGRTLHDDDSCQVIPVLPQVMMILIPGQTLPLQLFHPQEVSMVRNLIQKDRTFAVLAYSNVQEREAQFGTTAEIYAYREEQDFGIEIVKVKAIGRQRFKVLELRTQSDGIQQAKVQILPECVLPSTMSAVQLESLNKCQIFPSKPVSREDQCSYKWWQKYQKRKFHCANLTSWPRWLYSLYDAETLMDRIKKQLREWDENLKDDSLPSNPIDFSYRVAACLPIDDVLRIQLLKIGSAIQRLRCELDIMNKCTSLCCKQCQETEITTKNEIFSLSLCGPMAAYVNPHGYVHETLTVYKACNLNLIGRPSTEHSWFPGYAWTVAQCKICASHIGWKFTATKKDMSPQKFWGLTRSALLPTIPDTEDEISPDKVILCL

[5] = Oral plasma exposure in SCID mouse at 5 mg/kg, po measured after 6 hrs; format: ADME, organism-based; conditions: for concentration at 6 h: SCID, plasma
[6] = Oral plasma exposure in SCID mouse at 5 mg/kg, po measured after 3 hrs; format: ADME, organism-based; conditions: for concentration at 3 h: SCID, plasma
[7] = Oral plasma exposure in SCID mouse at 5 mg/kg, po measured after 1 hr; format: ADME, organism-based; conditions: for concentration at 1 h: SCID, plasma
CWR22R [8] = assay: Reduction in KLK3 gene expression in AR positive human 22Rv1 cells assessed as reduction in mRNA level at 1000 nM measured after 6 hrs by qRT-PCT analysis; format: functional, cell-based
CWR22R [9] = assay: Reduction in c-Myc gene expression in AR positive human 22Rv1 cells assessed as reduction in mRNA level at 1000 nM measured after 6 hrs by qRT-PCT analysis; format: functional, cell-based
LNCaP [10] = assay: Reduction in AR gene expression in AR positive human LNCaP cells assessed as reduction in mRNA level at 1000 nM measured after 6 hrs by qRT-PCT analysis; format: functional, cell-based
VCaP [11] = assay: Antiproliferative activity against AR positive human VCaP cells assessed inhibition of cell growth measured after 4 days by CellTiter-Glo Luminescent cell viability assay; format: functional, cell-based; conditions: 96 h
LNCaP [12] = assay: Antiproliferative activity against AR positive human LNCaP cells assessed inhibition of cell growth measured after 4 days by CellTiter-Glo Luminescent cell viability assay; format: functional, cell-based; conditions: 96 h
LNCaP [13] = assay: Reduction in KLK3 gene expression in AR positive human LNCaP cells assessed as reduction in mRNA level at 1000 nM measured after 6 hrs by qRT-PCT analysis; format: functional, cell-based
CWR22R [14] = assay: Reduction in AR gene expression in AR positive human 22Rv1 cells assessed as reduction in mRNA level at 1000 nM measured after 6 hrs by qRT-PCT analysis; format: functional, cell-based
VCaP [15] = assay: Reduction in c-Myc gene expression in AR positive human VCaP cells assessed as reduction in mRNA level at 1000 nM measured after 6 hrs by qRT-PCT analysis; format: functional, cell-based
VCaP [16] = assay: Reduction in AR gene expression in AR positive human VCaP cells assessed as reduction in mRNA level at 1000 nM measured after 6 hrs by qRT-PCT analysis; format: functional, cell-based
LNCaP [17] = assay: Reduction in c-Myc gene expression in AR positive human LNCaP cells assessed as reduction in mRNA level at 1000 nM measured after 6 hrs by qRT-PCT analysis; format: functional, cell-based
VCaP [18] = assay: Reduction in KLK3 gene expression in AR positive human VCaP cells assessed as reduction in mRNA level at 1000 nM measured after 6 hrs by qRT-PCT analysis; format: functional, cell-based
CWR22R [19] = assay: Antiproliferative activity against AR positive human 22Rv1 cells assessed inhibition of cell growth measured after 4 days by CellTiter-Glo Luminescent cell viability assay; format: functional, cell-based; conditions: 22Rv1, 96 h
VCaP [20] = assay: Antitumor activity against human VCaP cells xenografted in CB17 SCID mouse model assessed as tumor growth inhibition at 20 mg/kg, po qd scheduled 5 days in a week measured on day 63; format: functional; conditions: 1512 h, time 63 day, read-out: TGI
[21] = target: T2, Protein cereblon/CREB-binding protein; assay: Potency index, ratio of […] DC50 to test compound DC50 for PROTAC activity at CBP/CRBN in human VCaP cells assessed as protein degradation incubated for 4 hrs by Western blot analysis; format: cell-based
[22] = target: T1, Protein cereblon/Histone acetyltransferase p300; assay: Potency index, ratio of CPBD-409 DC50 to test compound DC50 for PROTAC activity at p300/CRBN in human VCaP cells assessed as protein degradation incubated for 4 hrs by Western blot analysis; format: cell-based

Compound | Emax [1] [%] | Emax [2] [%] | DC50 [3] [nM] | DC50 [4] [nM] | concentration at 6 h [5] [µg/mL] | concentration at 3 h [6] [µg/mL] | concentration at 1 h [7] [µg/mL] | also measured
CC(=O)N1CCc2c(c(N3CCCc4cc(-c5cnn(C)c5)c(C(F)F)cc43)nn2[C@H]2CC[C@H](CN3CCN(c4ccc5c(c4)CN(C4CCC(=O)NC4=O)C5=O)CC3)CC2)C1 (stereo partly drawn) | > 95 | > 95 | < 0.1 | 0.1 |  |  |  | 
CC(=O)N1CCc2c(c(N3CCCc4cc(-c5cnn(C)c5)c(C(F)F)cc43)nn2C2CCN(CC3CN(c4ccc5c(c4)C(=O)N(C4CCC(=O)NC4=O)C5=O)C3)CC2)C1 (stereo not drawn) | > 95 | > 95 | 0.4 | 1.1 | 0.0074 | 0.0167 | 0.0238 | 
CC(=O)N1CCc2c(c(N3CCCc4cc(-c5cnn(C)c5)c(C(F)F)cc43)nn2C2CCN(C(=O)CNc3ccc4c(c3)C(=O)N(C3CCC(=O)NC3=O)C4=O)CC2)C1 (stereo not drawn) | > 95 | > 95 | 2 | 0.7 | 0.0015 | 0.0014 | 0.0026 | 
CC(=O)N1CCc2c(c(N3CCCc4cc(-c5cnn(C)c5)c(C(F)F)cc43)nn2C2CCN(C(=O)CCNc3cccc4c3C(=O)N(C3CCC(=O)NC3=O)C4=O)CC2)C1 (stereo not drawn) | 81 | 88 | 18 | 8 |  |  |  | 
CC(=O)N1CCc2c(c(N3CCCc4cc(-c5cnn(C)c5)c(C(F)F)cc43)nn2C2CCN(C3CCN(c4ccc5c(c4)C(=O)N(C4CCC(=O)NC4=O)C5=O)CC3)CC2)C1 (stereo not drawn) | > 95 | > 95 | 0.6 | 1.1 | 0.0822 | 0.122 | 0.122 | 
CC(=O)N1CCc2c(c(N3CCCc4cc(-c5cnn(C)c5)c(C(F)F)cc43)nn2C2CCN(C(=O)c3ccc4c(c3)C(=O)N(C3CCC(=O)NC3=O)C4=O)CC2)C1 (stereo not drawn) | < 50 | < 50 | > 1000 | > 1000 |  |  |  | 
CC(=O)N1CCc2c(c(N3CCCc4cc(-c5cnn(C)c5)c(C(F)F)cc43)nn2C2CCN(C3CC4(C3)CN(c3ccc5c(c3)C(=O)N(C3CCC(=O)NC3=O)C5=O)C4)CC2)C1 (stereo not drawn) | > 95 | > 95 | 0.4 | 0.5 | 0.149 | 0.235 | 0.183 | 
CC(=O)N1CCc2c(c(N3CCCc4cc(-c5cnn(C)c5)c(C(F)F)cc43)nn2C2CCN(C(=O)Nc3ccc4c(c3)C(=O)N(C3CCC(=O)NC3=O)C4=O)CC2)C1 (stereo not drawn) | > 95 | > 95 | < 0.2 | < 0.2 |  |  |  | Cp ([5]; in vivo, po, 5 mg/kg, 6 h, BLD = below limit of detection): Bld; Cp ([6]; in vivo, po, 5 mg/kg, 3 h, BLD = below limit of detection): Bld; Cp ([7]; in vivo, po, 5 mg/kg, 1 h, BLD = below limit of detection): Bld
CNC(=O)c1ccc(N2C(=S)N(c3ccc(C#N)c(C(F)(F)F)c3)C(=O)C2(C)C)cc1F [ENZALUTAMIDE] |  |  |  |  |  |  |  | Activity (CWR22R [8]): Active; Activity (CWR22R [9]): Active; Activity (LNCaP [10]): inactive; IC50 (VCaP [11]): 9500 nM; IC50 (LNCaP [12]): 8000 nM; Activity (LNCaP [13]): Active; Activity (CWR22R [14]): inactive; Activity (VCaP [15]): Active; Activity (VCaP [16]): inactive; Activity (LNCaP [17]): Active; Activity (VCaP [18]): Active; IC50 (CWR22R [19]): > 1000 nM; inhibition in vivo at 20 mg/kg (VCaP [20]): 2.8%
CC(=O)N1CCc2c(c(N3CCCc4cc(-c5cnn(C)c5)c(C(F)F)cc43)nn2[C@H]2CC[C@H](CN3CCN(c4cccc5c4C(=O)N(C4CCC(=O)NC4=O)C5=O)CC3)CC2)C1 (stereo partly drawn) | 33 | 53 | > 1000 | 700 |  |  |  | 
CC(=O)N1CCc2c(c(N3CCCc4cc(-c5cnn(C)c5)c(C(F)F)cc43)nn2C2CCN(C3CC4(CCN(c5ccc6c(c5)C(=O)N(C5CCC(=O)NC5=O)C6=O)CC4)C3)CC2)C1 (stereo not drawn) | > 95 | > 95 | 0.4 | 1.1 | 0.328 | 0.312 | 0.493 | 
CC(=O)N1CCc2c(c(N3CCCc4cc(-c5cnn(C)c5)c(C(F)F)cc43)nn2C2CCN(C3CN(c4ccc5c(c4)C(=O)N(C4CCC(=O)NC4=O)C5=O)C3)CC2)C1 (stereo not drawn) | > 95 | > 95 | 1.1 | 1.3 | 0.613 | 0.962 | 1.05 | 
CC(=O)N1CCc2c(c(N3CCCc4cc(-c5cnn(C)c5)c(C(F)F)cc43)nn2C2CCN(C(=O)CCNc3ccc4c(c3)C(=O)N(C3CCC(=O)NC3=O)C4=O)CC2)C1 (stereo not drawn) | > 95 | > 95 | 0.4 | 0.9 | 0.002 | 0.0032 | 0.0051 | 
CC(=O)N1CCc2c(c(N3CCCc4cc(-c5cnn(C)c5)c(C(F)F)cc43)nn2C2CCN(C(=O)CCCCNc3ccc4c(c3)C(=O)N(C3CCC(=O)NC3=O)C4=O)CC2)C1 (stereo not drawn) | > 95 | > 95 | 0.4 | 0.4 |  |  |  | 
CC(=O)N1CCc2c(c(N3CCCc4cc(-c5cnn(C)c5)c(C(F)F)cc43)nn2C2CCN(C(=O)Nc3cccc4c3C(=O)N(C3CCC(=O)NC3=O)C4=O)CC2)C1 (stereo not drawn) | < 50 | < 50 | > 1000 | > 1000 |  |  |  | 
CC(=O)N1CCc2c(c(N3CCCc4cc(-c5cnn(C)c5)c(C(F)F)cc43)nn2C2CCN(C(=O)CCCNc3cccc4c3C(=O)N(C3CCC(=O)NC3=O)C4=O)CC2)C1 (stereo not drawn) | 93 | 92 | 1.2 | 1.4 |  |  |  | 
CC(=O)N1CCc2c(c(N3CCCc4cc(-c5cnn(C)c5)c(C(F)F)cc43)nn2[C@H]2CC[C@H](CN3CCN(c4cc5c(cc4F)C(=O)N(C4CCC(=O)NC4=O)C5=O)CC3)CC2)C1 (stereo partly drawn) | 94 | 94 | 1.2 | 1.2 |  |  |  | Ratio [21]: 4; Ratio [22]: 4
CC(=O)N1CCc2c(c(N3CCCc4cc(-c5cnn(C)c5)c(C(F)F)cc43)nn2C2CCN(C(=O)CCCCNc3cccc4c3C(=O)N(C3CCC(=O)NC3=O)C4=O)CC2)C1 (stereo not drawn) | > 95 | > 95 | 0.1 | 0.4 | 0.0016 | 0.0027 | 0.0054 | 
CC(=O)N1CCc2c(c(N3CCCc4cc(-c5cnn(C)c5)c(C(F)F)cc43)nn2C2CCN(C(=O)c3cccc4c3C(=O)N(C3CCC(=O)NC3=O)C4=O)CC2)C1 (stereo not drawn) | < 50 | < 50 | > 1000 | > 1000 |  |  |  | 
CC(=O)N1CCc2c(c(N3CCCc4cc(-c5cnn(C)c5)c(C(F)F)cc43)nn2C2CCN(C(=O)CCCCCNc3cccc4c3C(=O)N(C3CCC(=O)NC3=O)C4=O)CC2)C1 (stereo not drawn) | > 95 | 115 | 0.2 | 0.4 |  |  |  | 

— ChEMBL document CHEMBL5518240 (J Med Chem, 2024)
